Numbering of substitutions follows the chain as printed.
How the values were obtained:
[1] = target: T1, R. etli pyruvate carboxylase (RePC) (Rhizobium etli, UniProt Q2K340, T882A); test: bicarbonate-dependent ATPase, coupled Pi assay, partial inhibition fit; format: biochemical
T1 sequence (Q2K340 1-1154 T882A): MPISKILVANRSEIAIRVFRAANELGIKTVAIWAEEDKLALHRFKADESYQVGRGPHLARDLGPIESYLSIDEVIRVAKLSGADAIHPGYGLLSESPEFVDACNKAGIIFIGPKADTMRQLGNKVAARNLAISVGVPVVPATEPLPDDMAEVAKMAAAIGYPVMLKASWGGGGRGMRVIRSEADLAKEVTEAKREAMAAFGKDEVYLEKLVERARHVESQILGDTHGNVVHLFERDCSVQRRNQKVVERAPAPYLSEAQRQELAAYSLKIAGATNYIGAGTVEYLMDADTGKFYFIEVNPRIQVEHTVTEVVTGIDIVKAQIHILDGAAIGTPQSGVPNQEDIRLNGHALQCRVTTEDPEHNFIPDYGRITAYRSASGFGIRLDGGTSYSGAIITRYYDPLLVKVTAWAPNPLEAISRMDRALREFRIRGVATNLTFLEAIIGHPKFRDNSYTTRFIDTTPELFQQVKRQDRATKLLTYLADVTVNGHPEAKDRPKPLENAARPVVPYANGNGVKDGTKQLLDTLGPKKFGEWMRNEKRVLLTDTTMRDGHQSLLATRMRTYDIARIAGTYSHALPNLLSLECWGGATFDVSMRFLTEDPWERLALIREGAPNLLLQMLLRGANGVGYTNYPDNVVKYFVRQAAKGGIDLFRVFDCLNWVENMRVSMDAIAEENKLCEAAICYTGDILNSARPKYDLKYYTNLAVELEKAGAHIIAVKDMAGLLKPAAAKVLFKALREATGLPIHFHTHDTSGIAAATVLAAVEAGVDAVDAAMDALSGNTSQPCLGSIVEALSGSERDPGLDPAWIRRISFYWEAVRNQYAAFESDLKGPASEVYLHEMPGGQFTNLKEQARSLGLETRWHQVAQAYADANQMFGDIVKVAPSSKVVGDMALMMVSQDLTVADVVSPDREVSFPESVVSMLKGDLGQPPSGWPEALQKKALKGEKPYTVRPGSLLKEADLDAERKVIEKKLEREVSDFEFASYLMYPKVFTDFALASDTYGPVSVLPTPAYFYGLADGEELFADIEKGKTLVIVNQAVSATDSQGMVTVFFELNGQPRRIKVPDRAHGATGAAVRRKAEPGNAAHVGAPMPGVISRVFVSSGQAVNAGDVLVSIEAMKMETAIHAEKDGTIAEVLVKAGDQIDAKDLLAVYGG

[2] = target: T2, R. etli pyruvate carboxylase (RePC) (Rhizobium etli, UniProt Q2K340); test: bicarbonate-dependent ATPase, coupled Pi assay, fit to substrate inhibition; format: biochemical; details: 0-20 mM pyruvate, text prints 10.2 ± 0.1 mM, 100 mM Tricine pH 7.5, 25 °C, 10 mM HCO3-, 2.5 mM MgATP, 2.5 mM MgCl2, 0.25 mM acetyl-CoA
T2 sequence (Q2K340 1-1154): T1 sequence (Q2K340 1-1154 T882A) with A882T

Row | Structure (SMILES) | Ki [1] | Ki [2]
1 | NC(=O)C(=O)O [oxamate] | 1000 ± 200 µM | –
2 | CC(=O)C(=O)O [pyruvate] | 800 ± 100 µM | 10000 ± 1000 µM

— paper PMC2746095 (Biochemistry, 2009)
